Measurements as given in patent US11542259B2, “Compounds for the treatment of kinase-dependent disorders” (Exelixis, Inc., priority 2018, dated 2023).

Columns and labels:
Met = Met (Homo sapiens (Human), UniProt P08581); assay: Met autophosphorylation ELISA in PC-3 cells; format: cell-based; conditions: cellular, HGF stimulated, read-out: c-Met IC50
Outline: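 Phospho-Met (panTyr) sandwich ELISA on lysates of PC-3 cells given 100 ng/mL HGF for 10 min after 1 h compound exposure (8-point curve, 0.3% DMSO) following 3 h serum starvation. Normalised to HGF-stimulated DMSO and reference-inhibitor wells; 4-parameter logistic IC50.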

Mer = Mer (Homo sapiens (Human), UniProt Q12866); assay: Mer autophosphorylation ELISA in transient transfected 293A cells; format: cell-based; conditions: cellular, MERTK transfected 293A cells
Protocol: 293A cells (Thermo Fisher #R70507) were seeded at 1.5×10^6 cells/well onto 100 mm dish (Greiner #664169), in DMEM (Thermo Fisher #11995-040) containing 10% FBS (Thermo Fisher #26140-079), 1% MEM NEAA (Thermo Fisher #11140-050), 1% GlutaMax (Thermo Fisher #35050-061), and 1% Penicillin Streptomycin (Thermo Fisher #15140-122). 293A cells were incubated at 37° C., 5% CO2 for 24 h and then transfected with 6 μg MERTK DNA (Genecopoeia #EX-Z8208-M02) using TransIT LT1 transfection reagent (Mirus-Bio #MIR2305). After 24 h incubation, the transfected 293A cells were seeded at 1×10^5 cells/well onto 96-well plates (Corning #3904) in DMEM growth medium overnight. Test compounds were serially diluted to produce an 8-point dose curve in fresh serum-free medium to a final concentration of 0.3% DMSO (vehicle) and added to the cells and incubated for 1 h. Cells were then immediately lysed with 150 μL of cold 1× lysis buffer [20 mM Tris, 137 mM sodium chloride, 2 mM EDTA, 10% glycerol, 1% NP-40 alternative, 1 mM activated sodium orthovanadate, 1 mM PefaBloc SC (Sigma-Aldrich #11429868001), protease/phosphatase inhibitor tablet (Thermo Fisher #A32959)]. Lysates were clarified by centrifugation and 50 μL/well added into the human phospho-Mer DuoSet IC ELISA (R&D Systems #DYC2579-2). Assay was performed according to manufacturer's instructions and sample phospho-Mer concentrations were extrapolated using human phospho-Mer control (R&D Systems #841793) as a standard. Positive control wells (100% activity) contained DMSO-treated cell lysates. Negative control wells (0% activity) contained reference inhibitor-treated cell lysates. IC50 values were calculated by nonlinear regression analysis using a 4-parameter logistic curve fit in ActivityBase XE (IDBS).

KDR = KDR (Homo sapiens (Human), UniProt P35968); assay: KDR autophosphorylation ELISA in HUVEC cells; format: cell-based; conditions: cellular, VEGF165 stimulated
Chain of KDR (P35968 20-1356): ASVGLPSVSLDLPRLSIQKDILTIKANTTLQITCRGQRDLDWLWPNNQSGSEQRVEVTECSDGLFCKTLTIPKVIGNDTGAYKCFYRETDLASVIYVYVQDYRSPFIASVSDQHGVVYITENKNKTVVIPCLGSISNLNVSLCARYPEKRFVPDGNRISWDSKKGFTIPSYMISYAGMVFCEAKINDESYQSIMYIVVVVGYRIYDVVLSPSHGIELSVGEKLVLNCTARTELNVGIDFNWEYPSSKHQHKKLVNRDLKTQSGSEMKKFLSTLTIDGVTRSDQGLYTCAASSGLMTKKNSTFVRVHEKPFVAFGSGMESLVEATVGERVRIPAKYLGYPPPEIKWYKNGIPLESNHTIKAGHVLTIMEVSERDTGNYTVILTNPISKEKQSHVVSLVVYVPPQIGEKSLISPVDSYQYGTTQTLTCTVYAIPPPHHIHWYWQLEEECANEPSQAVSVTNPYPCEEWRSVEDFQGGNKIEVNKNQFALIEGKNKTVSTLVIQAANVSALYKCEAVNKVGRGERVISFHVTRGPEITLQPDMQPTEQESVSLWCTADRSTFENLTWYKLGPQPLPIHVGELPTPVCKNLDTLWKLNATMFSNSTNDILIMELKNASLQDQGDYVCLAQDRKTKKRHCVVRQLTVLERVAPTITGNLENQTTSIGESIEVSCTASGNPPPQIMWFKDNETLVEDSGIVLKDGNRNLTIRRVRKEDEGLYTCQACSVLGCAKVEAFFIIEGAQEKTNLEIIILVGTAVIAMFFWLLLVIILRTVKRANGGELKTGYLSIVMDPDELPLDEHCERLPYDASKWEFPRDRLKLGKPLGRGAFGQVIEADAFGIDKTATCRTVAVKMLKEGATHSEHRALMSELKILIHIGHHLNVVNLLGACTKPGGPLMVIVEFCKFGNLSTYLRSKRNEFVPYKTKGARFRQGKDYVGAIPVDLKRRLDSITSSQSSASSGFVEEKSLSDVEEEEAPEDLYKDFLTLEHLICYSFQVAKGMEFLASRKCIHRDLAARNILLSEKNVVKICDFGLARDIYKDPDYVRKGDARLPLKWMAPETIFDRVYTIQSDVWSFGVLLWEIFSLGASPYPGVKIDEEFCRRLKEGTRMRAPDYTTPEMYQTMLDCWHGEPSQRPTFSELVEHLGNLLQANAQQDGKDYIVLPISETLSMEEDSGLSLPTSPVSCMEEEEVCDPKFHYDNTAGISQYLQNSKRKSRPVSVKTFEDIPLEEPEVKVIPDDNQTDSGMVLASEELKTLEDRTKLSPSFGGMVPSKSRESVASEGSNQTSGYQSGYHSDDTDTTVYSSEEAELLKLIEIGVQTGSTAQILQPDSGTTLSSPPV
Outline: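 Phospho-KDR levels in lysates were measured by ELISA and referenced to stimulated-vehicle (100%) and unstimulated (0%) wells, IC50 from 4-parameter logistic fit. HUVEC, starved 24 h in serum-free medium, received an 8-point compound series (0.3% DMSO) for 1 h before a 5 min 100 ng/mL VEGF165 challenge.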

AXL = AXL (Homo sapiens (Human), UniProt P30530); assay: AXL autophosphorylation ELISA in A-172 cells; format: cell-based; conditions: cellular, Gas6 stimulated
Chain of AXL (P30530 26-894): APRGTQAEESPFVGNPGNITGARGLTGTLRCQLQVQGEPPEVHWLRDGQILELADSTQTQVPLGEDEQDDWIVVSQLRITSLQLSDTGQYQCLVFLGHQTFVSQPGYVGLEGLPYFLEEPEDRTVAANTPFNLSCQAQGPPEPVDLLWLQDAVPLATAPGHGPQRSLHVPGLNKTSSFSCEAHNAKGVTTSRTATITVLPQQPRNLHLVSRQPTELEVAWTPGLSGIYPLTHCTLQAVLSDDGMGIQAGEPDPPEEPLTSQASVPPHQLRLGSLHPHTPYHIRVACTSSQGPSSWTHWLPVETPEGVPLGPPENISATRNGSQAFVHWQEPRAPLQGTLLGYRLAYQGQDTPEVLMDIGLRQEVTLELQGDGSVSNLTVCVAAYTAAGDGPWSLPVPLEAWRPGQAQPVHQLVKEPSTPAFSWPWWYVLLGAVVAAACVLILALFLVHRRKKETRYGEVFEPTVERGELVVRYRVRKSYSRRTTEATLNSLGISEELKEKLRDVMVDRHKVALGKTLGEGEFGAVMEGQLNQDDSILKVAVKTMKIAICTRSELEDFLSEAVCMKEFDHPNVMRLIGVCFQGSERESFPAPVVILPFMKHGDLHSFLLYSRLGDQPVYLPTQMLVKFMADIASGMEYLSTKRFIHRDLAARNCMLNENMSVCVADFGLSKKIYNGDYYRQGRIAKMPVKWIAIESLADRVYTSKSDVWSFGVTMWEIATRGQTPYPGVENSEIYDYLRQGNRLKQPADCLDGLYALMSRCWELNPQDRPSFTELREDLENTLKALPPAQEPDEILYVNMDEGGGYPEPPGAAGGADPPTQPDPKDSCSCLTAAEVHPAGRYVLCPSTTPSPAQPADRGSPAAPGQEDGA
Outline: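 Serum-starved (24 h) A-172 glioblastoma cells pretreated 1 h with compounds (8-point curve, 0.3% DMSO), then stimulated 15 min with 1 μg/mL Gas6. Lysate phospho-AXL measured by sandwich ELISA against a phospho-AXL standard; IC50 from 4-parameter logistic fit between DMSO and reference-inhibitor controls.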

[1] = biological target: Human Mer (residues R557-E882 with H628Q and R794A) (Homo sapiens (Human), UniProt Q12866); assay: Human Mer kinase assay (33P radiometric, KinaseProfiler); format: biochemical; conditions: 10 μM ATP
Chain of Human Mer (residues R557-E882 with H628Q and R794A) (Q12866 557-882, stated change not applied): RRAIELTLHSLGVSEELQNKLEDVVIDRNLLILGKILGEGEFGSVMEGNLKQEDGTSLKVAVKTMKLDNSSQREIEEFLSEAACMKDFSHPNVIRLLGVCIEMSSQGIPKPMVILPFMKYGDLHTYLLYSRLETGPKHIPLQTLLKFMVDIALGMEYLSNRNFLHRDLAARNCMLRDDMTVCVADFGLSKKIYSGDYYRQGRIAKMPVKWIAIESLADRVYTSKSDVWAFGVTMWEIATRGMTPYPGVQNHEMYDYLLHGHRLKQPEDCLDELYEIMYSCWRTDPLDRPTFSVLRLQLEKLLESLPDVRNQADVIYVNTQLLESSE
Protocol: (§1) Kinase activity and compound inhibition were investigated using the ^33P-Phosphoryl transfer radiometric kinase assay, performed using the KinaseProfiler™ service of Eurofins Pharma Discovery Services UK Limited. Dose-response experiments were performed using nine compound concentrations in a 96-well microtiter plate. For each assay, all compounds were prepared to a 50× final assay concentration (50 μM) in 100% DMSO, then diluted in a half-log series, with the final top concentration at 1 μM. This working stock of the compound was added to the assay well as the first component in the reaction, followed by the remaining components as detailed in the following assay protocols below. The positive control wells (100% kinase activity) contain all components of the reaction including 2% DMSO (control for solvent effects), except the compound of interest. Blank wells contain all components of the reaction, with the reference inhibitor, staurosporine. This reference compound was used to abolish kinase activity and generated the 0% kinase activity base-line. IC50 values were calculated by nonlinear regression analysis using the sigmoidal dose-response (variable slope) curve fit on XLFit version 5.3 (ID Business Solutions).
Human Mer (residues R557-E882 with H628Q and R794A, 0.7 nM) was incubated with 8 mM MOPS pH 7.0, 0.2 mM EDTA, 30 mM NaCl, 250 μM GGMEDIYFEFMGGKKK (SEO ID NO. 44). 10 mM magnesium acetate, and 10 μM [γ-^33P-ATP]. The reaction was initiated by the addition of the Mg/ATP mix. After incubation for 40 minutes at room temperature, the reaction was stopped by the addition of phosphoric acid to a concentration of 0.5%. A reaction aliquot of 10 μL was then spotted onto a P30 filtermat and washed four times for 4 minutes in 0.425% phosphoric acid and once in methanol prior to drying and scintillation counting. Incorporated ^33P was measured using the Wallac Microbeta scintillation counter (Perkin Elmer).

[2] = biological target: Human Axl (residues H473-A894 with Q764R) (Homo sapiens (Human), UniProt P30530, Q764R); assay: Human AXL kinase assay (33P radiometric, KinaseProfiler); format: biochemical; conditions: 10 μM ATP
Chain of Human Axl (residues H473-A894 with Q764R) (P30530 473-894 Q764R): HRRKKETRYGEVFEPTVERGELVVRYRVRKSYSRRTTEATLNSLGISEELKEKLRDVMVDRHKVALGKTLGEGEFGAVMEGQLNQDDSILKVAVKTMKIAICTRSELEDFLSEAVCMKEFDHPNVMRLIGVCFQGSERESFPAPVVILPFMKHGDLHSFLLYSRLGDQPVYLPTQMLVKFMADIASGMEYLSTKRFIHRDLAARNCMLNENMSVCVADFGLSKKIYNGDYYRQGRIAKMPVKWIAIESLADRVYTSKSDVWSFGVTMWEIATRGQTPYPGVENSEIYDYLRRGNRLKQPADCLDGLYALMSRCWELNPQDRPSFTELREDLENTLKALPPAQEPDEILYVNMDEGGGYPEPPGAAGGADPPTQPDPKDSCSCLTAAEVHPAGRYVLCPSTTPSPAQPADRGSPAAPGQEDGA
Protocol: as §1
Human Axl (residues H473-A894 with Q764R, 161 nM) was incubated with 8 mM MOPS pH 7.0, 0.2 mM EDTA, 250 μM KKSRGDYMTMQIG (SEO ID NO. 43) 10 mM magnesium acetate and 10 μM [γ-33P-ATP]. The reaction was initiated by the addition of the Mg/ATP mix. After incubation for 40 minutes at room temperature, the reaction was stopped by the addition of phosphoric acid to a concentration of 0.5%. A reaction aliquot of 10 μL was then spotted onto a P30 filtermat and washed four times for 4 minutes in 0.425% phosphoric acid and once in methanol prior to drying and scintillation counting. Incorporated ^33P was measured using the Wallac Microbeta scintillation counter (Perkin Elmer).

[3] = biological target: Human Met (residues R974-S1390 with A1209G and V1290L) (Homo sapiens, UniProt P08581); assay: Human Met kinase assay (33P radiometric, KinaseProfiler); format: biochemical; conditions: 10 μM ATP, read-out: c-Met IC50
Protocol: as §1
Human Met (residues R974-S1390 with A1209G and V1290L, 3.4 nM) was incubated with 8 mM MOPS pH 7.0, 0.2 mM EDTA, 250 μM KKKGQEEEYVFIE (SEO ID NO. 45), 1 mM sodium orthovanadate, 5 mM […], 10 mM magnesium acetate, and 10 μM [γ-33P-ATP]. The reaction was initiated by the addition of the Mg/ATP mix. After incubation for 40 minutes at room temperature, the reaction was stopped by the addition of phosphoric acid to a concentration of 0.5%. A reaction aliquot of […] was then spotted onto a P30 filtermat and washed four times for 4 minutes in 0.425% phosphoric acid and once in methanol prior to drying and scintillation counting. Incorporated 33P was measured using the Wallac Microbeta scintillation counter (Perkin Elmer).

Chain of Met (P08581 25-1390): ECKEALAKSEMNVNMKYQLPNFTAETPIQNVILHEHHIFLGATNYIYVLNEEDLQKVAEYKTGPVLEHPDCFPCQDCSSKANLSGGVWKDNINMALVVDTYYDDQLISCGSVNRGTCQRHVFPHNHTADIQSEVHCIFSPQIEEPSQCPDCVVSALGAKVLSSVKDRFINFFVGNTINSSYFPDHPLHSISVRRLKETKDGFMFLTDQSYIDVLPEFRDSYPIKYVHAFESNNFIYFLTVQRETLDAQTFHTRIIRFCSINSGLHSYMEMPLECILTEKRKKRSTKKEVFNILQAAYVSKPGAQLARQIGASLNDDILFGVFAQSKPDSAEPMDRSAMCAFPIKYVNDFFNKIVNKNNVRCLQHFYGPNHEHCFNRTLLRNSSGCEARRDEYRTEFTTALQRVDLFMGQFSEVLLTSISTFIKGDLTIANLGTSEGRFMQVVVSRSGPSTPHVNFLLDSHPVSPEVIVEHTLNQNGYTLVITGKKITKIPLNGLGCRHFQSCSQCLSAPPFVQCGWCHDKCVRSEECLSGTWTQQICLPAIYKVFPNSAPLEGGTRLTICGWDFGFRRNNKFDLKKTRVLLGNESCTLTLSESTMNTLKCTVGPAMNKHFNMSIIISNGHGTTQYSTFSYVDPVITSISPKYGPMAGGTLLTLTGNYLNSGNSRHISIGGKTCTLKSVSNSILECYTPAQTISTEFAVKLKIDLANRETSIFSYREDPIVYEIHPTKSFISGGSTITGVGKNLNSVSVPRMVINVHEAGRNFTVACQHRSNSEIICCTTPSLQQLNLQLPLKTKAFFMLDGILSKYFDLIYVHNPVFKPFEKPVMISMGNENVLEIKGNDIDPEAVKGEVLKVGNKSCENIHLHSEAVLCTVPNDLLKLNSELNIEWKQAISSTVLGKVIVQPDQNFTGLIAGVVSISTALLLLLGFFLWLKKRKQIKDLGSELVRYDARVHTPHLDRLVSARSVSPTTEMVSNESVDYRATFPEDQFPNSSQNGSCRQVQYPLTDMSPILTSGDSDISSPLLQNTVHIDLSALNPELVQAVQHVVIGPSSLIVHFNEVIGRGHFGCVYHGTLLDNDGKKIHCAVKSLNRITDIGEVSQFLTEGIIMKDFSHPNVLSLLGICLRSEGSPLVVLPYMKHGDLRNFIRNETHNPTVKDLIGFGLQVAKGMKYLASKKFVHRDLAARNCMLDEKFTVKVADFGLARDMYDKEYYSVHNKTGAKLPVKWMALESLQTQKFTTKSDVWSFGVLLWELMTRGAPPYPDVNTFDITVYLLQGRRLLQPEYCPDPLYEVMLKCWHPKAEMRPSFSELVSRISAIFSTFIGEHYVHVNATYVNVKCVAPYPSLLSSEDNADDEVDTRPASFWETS

SMILES | IC50 (Met) [nM] | IC50 (Mer) [nM] | IC50 (KDR) [nM] | IC50 (AXL) [nM] | IC50 [1] [nM] | IC50 [2] [nM] | IC50 [3] [nM]
CNC(=O)c1cc2c(Oc3ccc(NC(=O)C4(C(=O)Nc5ccc(F)cc5)CC4)cc3)ccnc2cc1OCC(C)O (stereo not shown) [Compound 116, 1-N′-(4-Fluorophenyl)-1-N-[4-[7-(2-hydroxypropoxy)-6-(methylcarbamoyl)quinolin-4-yl]oxyphenyl]cyclopropane-1,1-dicarboxamide] | 10 to 100 | 10 to 100 | ≤ 10 | ≤ 10 |  |  | 
CNC(=O)Nc1cc2c(Oc3ccc(NC(=O)C4(C(=O)Nc5ccc(F)cc5)CC4)cc3)ccnc2cc1OC [Compound 279, 1-N′-(4-Fluorophenyl)-1-N-[4-[7-methoxy-6-(methylcarbamoylamino)-quinolin-4-yl]oxyphenyl]cyclopropane-1,1-dicarboxamide] | 10 to 100 | ≤ 10 | ≤ 10 | ≤ 10 |  |  | 
COc1cc2nccc(Oc3ccc(NC(=O)C4(C(=O)Nc5ccc(F)cc5)CC4)cc3)c2cc1C(C)=O [Compound 34, 1-N-[4-(6-acetyl-7-methoxyquinolin-4-yl)oxyphenyl]-1-N′-(4-fluorophenyl)cyclopropane-1,1-dicarboxamide] | 10 to 100 | ≤ 10 | ≤ 10 | ≤ 10 |  |  | 
CCC1NC(=O)c2cc3c(Oc4ccc(NC(=O)C5(C(=O)Nc6ccc(F)cc6)CC5)cc4)ccnc3cc2O1 (stereo not shown) [Compound 96, 1-N-[4-[(2-Ethyl-4-oxo-2,3-dihydropyrido[3,2-g][1,3]benzoxazin-6-yl)oxy]phenyl]-1-N′-(4-fluorophenyl)cyclopropane-1,1-dicarboxamide] | 100 to 300 | 10 to 100 | 100 to 300 | 10 to 100 |  |  | 
CNC(=O)c1cc2nccc(Oc3ccc(NC(=O)C4(C(=O)Nc5ccc(F)cc5)CC4)cc3F)c2cc1C [Compound 289, 1-N′-[3-Fluoro-4-[6-methyl-7-(methylcarbamoyl)quinolin-4-yl]oxyphenyl]-1-N-(4-fluorophenyl)cyclopropane-1,1-dicarboxamide] | 10 to 100 | 10 to 100 | 10 to 100 | 10 to 100 |  |  | 
CC(O)COc1cc2nccc(Oc3ccc(NC(=O)C4(C(=O)Nc5ccc(F)cc5)CC4)cc3)c2cc1-c1ncco1 (stereo not shown) [Compound 125, 1-N′-(4-Fluorophenyl)-1-N-[4-[7-(2-hydroxypropoxy)-6-(1,3-oxazol-2-yl)quinolin-4-yl]oxyphenyl]cyclopropane-1,1-dicarboxamide] | 10 to 100 | ≤ 10 | 10 to 100 | ≤ 10 |  |  | 
COc1cc2nccc(Oc3ccc(NC(=O)C4(C(=O)Nc5ccc(F)cc5)CC4)cc3)c2cc1C(=O)NOC1COC1 [Compound 26, 1-N′-(4-fluorophenyl)-1-N-[4-[7-methoxy-6-(oxetan-3-yloxycarbamoyl)quinolin-4-yl]oxyphenyl]cyclopropane-1,1-dicarboxamide] | 10 to 100 | 10 to 100 | ≤ 10 | 10 to 100 |  |  | 
CC(O)COc1cc2nccc(Oc3ccc(NC(=O)C4(C(=O)Nc5ccc(F)cc5)CC4)cc3)c2cc1C(N)=O (stereo not shown) [Compound 115, 1-N-[4-[6-Carbamoyl-7-(2-hydroxypropoxy)quinolin-4-yl]oxyphenyl]-1-N′-(4-fluorophenyl)cyclopropane-1,1-dicarboxamide] | 10 to 100 | 10 to 100 | ≤ 10 | ≤ 10 |  |  | 
COc1cc2nccc(Oc3ccc(NC(=O)C4(C(=O)Nc5ccc(F)cc5)CC4)cc3)c2cc1C(=O)NO [Compound 20, 1-N′-(4-fluorophenyl)-1-N-[4-[6-(hydroxycarbamoyl)-7-methoxyquinolin-4-yl]oxyphenyl]cyclopropane-1,1-dicarboxamide] | 10 to 100 | 10 to 100 | 10 to 100 | 10 to 100 |  |  | 
CNC(=O)c1cc2c(Oc3ccc(NC(=O)C4(C(=O)Nc5ccc(Cl)cc5)CC4)cc3F)ccnc2cc1OC [Compound 274, 1-N-(4-Chlorophenyl)-1-N′-[3-fluoro-4-[7-methoxy-6-(methylcarbamoyl)quinolin-4-yl]oxyphenyl]cyclopropane-1,1-dicarboxamide] | 10 to 100 | ≤ 10 | ≤ 10 | 10 to 100 |  |  | 
COc1cc2c(Oc3ccc(NC(=O)C4(C(=O)Nc5ccc(F)cc5)CC4)cc3)ccnc2cc1C(=O)O [Compound 151, 4-[4-[[1-[(4-fluorophenyl)carbamoyl]cyclopropanecarbonyl]amino]phenoxy]-6-methoxyquinoline-7-carboxylic acid] |  |  | > 300 |  | 10 to 100 | 100 to 1000 | 10 to 100
COc1cc2nccc(Oc3ccc(NC(=O)C4(C(=O)Nc5ccc(F)cc5)CC4)cc3)c2cc1C(=O)O [Compound 6, 4-[4-[[1-[(4-fluorophenyl)carbamoyl]-cyclopropanecarbonyl]amino]-phenoxy]-7-methoxyquinoline-6-carboxylic acid] | > 300 |  | > 300 |  | 10 to 100 | 100 to 1000 | ≤ 10
Cc1cc2c(Oc3ccc(NC(=O)C4(C(=O)Nc5ccc(F)cc5)CC4)cc3)ccnc2cc1C(=O)O [Compound 141, 4-[4-[[1-[(4-fluorophenyl)carbamoyl]cyclopropanecarbonyl]amino]phenoxy]-6-methylquinoline-7-carboxylic acid] |  |  |  |  | > 1000 | > 1000 | > 1000
